In data set [1] the test system is Colon-26 (C26) murine tumor cachexia model. Put plainly: Colon-26 (C26) tumor cachexia model, oral treatment. To be noted: C26 mice, FK506 0.02 mg/Kg daily oral. In kind it is in vivo. The protocol: (§1) FK506 (Cayman Chemical, #10007965) was dissolved in DMSO (5mg/mL) and then diluted in a 5% glucose and water solution for oral administration in order to reach the final concentration of 0.02mg/kg. All the mice were subjected to one day of treatment, prior to inoculation of colon-26 (C26) adenocarcinoma cells into the right flank of three-month-old Balb C females (Charles River #028) (0.7x10^6 cells/mouse). All the mice were treated daily with FK506 (0.02 mg/Kg) or 5% glucose buffer DMSO vehicle.
Maximum muscle strength was measured on the day of inoculation (day 0) and the day of sacrifice (day 11) using the Grip Strength Test (Bioseb).
(§2) The gastrocnemii, tumors, and subcutaneous and inguinal adipose tissue were isolated, weighed, and normalized for the tibia length of each mouse.
The fresh gastrocnemii were frozen in liquid nitrogen-cooled isopentane and stored at -80°C. 7µm cross-sections were performed using a cryostat. Immunofluorescence was performed by securing the tissues in 4% PFA, blocking with […] in PBS before incubating with the primary antibody for laminin (sc-59854), and with the secondaries (ALEXA488) and DAPI (Abcam 228549). The photographs were taken with a fluorescence microscope to evaluate the cross-sectional area of the fibers.
The total RNA from the frozen tissues was extracted with TRIzol reagent (Invitrogen) following the manufacturer's instructions. 0.5-1µg of total RNA were retrotranscribed using High Capacity cDNA Reverse Transcriptase kit (Applied Biosystems). The cDNA was analyzed with Real Time Quantitative PCR (ABI PRISM 7900HT FAST Real-Time PCR system, Applied Biosystems) using Luna Universal Probe qPCR master mix (Nebb) and Universal Probe Library system (Roche Applied Science). The relative mRNA levels were calculated using the 2-ΔΔCT method and normalizing for the GAPDH levels. The following primers were used: Atrogin1 F: 5'-[…]-3' (SEQ ID No. 1), R: 5' […]-3' (SEQ ID No. 2); Murf1 F: 5'[…]-3' (SEQ ID No. 3), R: 5'-tcgtcttcgtgttccttgc-3' (SEQ ID No. 4); Musa1 F: 5'-gagaagccagggtttgagc-3' (SEQ ID No. 5), R: 5'-[…]-3' (SEQ ID No. 6); Cathepsin L F: 5'-[…]-3' (SEQ ID No. 7), R: 5'-[…]-3' (SEQ ID No. 8); FKBP12 F: 5'-atgggagtgcaggtggag-3' (SEQ ID No. 9), R: 5'-[…]-3' (SEQ ID No. 10). GAPDH F: 5'-[…]-3' (SEQ ID No. 11), R: 5'-[…]-3' (SEQ ID No. 12).

The subject of data set [2] is C2C12 myotubes. Kind of data set: Protein ubiquitination flow after proteasome inhibition (MG132) in C2C12 myotubes. It is filed as cell-based, murine. To be noted: FK506 1µg/mL plus Activin A 1ng/mL, with and without MG132 1µM, 1h. The protocol:
(§3) The myotubes were treated with 10% C26 conditioned medium (C26 CM (9)) or Activin A (1ng/mL R&D # 338-AC), FK506 (1µg/mL Cayman Chemical, #10007965), BMP6 (1ng/mL R&D Systems, 6325-BM), cyclosporine A (1µM Tocris Biosciences #1101), DMH1 (5µM CAS No 1206711-16-1) or with DMEM/2%HS (CTR) differentiation medium for 24h to measure their diameter. For the signaling experiments, two hours prior to treatment, the DMEM differentiation medium without serum was changed, followed by 1h of treatment with FK506 (1 µg/mL) or BMP6 (30ng/mL). The protein ubiquitination flow was measured by treating in C2C12 myotubes with FK506 1µg/mL, Activin A 1ng/mL (ACTA), and the combination of the two, with and without MG132 proteasome inhibitor (Senta Cruz Biotechnology, SC-351846), 1µM for 1h.
(§4) C2C12 myotubes were lysed in RIPA lysis buffer (150mM NaCl, 50mM Tris-HCl, 0.5% sodium deoxycholate, 1.0% Triton X-100, 0.1% SDS, and 1mM EDTA) with protease and phosphatase inhibitors (Roche, #0490837001, #11697498001). The protein concentration was determined using the BCA assay (Thermo Fisher Scientific). 15µg of proteins from cell lysates were loaded for performing SDS-PAGE, then transferred onto PVDF membrane for immunoblotting analysis. The primary antibodies used are: SMAD1 (Cell Signaling, #9743), P-SMAD1/5 (Cell Signaling, #13820T), vinculin (Cell Signaling #4650), ubiquitin (Abcam, #7780).

Data set [3] relates to immune populations. Kind of data set: FACS of immune populations in blood, spleens and tumors of C26 mice. It is filed as in vivo. To be noted: FK506 0.02 mg/Kg daily oral. The protocol: The blood was extracted and incubated with erythrocyte lysis buffer for 10 minutes at room temperature. After washing with PBS, the cells were collected, incubated with Fc-receptor blocker (anti-CD16/CD32 antibody, BD Bioscience #101302) and stained for 30 minutes at 4°C with the antibodies.
The primary tumors were extracted, crushed, and digested with collagenase IV (1mg/mL) (Sigma Aldrich #C4-28) in RPMI-1640 at 37°C for 1h. After washing the tissues with RPMI-1640/10% FBS, the suspension was passed through a 70-µm pore filter, centrifuged at 1400rpm for 10 minutes and incubated with the erythrocyte lysis buffer (155 mM NH4Cl, 15.8 mM Na2CO3, 1 mM EDTA, pH 7.3) for 10 minutes at room temperature. After washing with RPMI-1640/10% FBS, 1 million cells were resuspended in PBS, treated with Fc-receptor blocker (anti-CD16/CD32 antibody, BD Bioscience #101302) and stained for 30 minutes at 4°C with the antibodies.

Data set [4] has as its system post-transplant diabetes mellitus rats. To be noted: 1 mg/kg/d; cited from earlier work.
Data set [5] concerns BMP-SMAD1/5/8 signaling pathway. To be noted: hepatocytes; cited from earlier work.
The subject of data set [6] is Balb C mice. Put plainly: Hypertrophy experiment in Balb C mice without tumor, oral treatment. In kind it is in vivo. How it is done: as §1, §2
4-month-old Balb C females were treated orally every day for 4 weeks (5 days per week), with 0.02mg/Kg/day FK506 in 5% glucose solution or with vehicle (CTR). The maximum strength was measured weekly with the Grip Strength Test.

Data set [7] deals with pGL3-BMP responsive element (BRE)-Luc. Kind of data set: Luciferase assay with pGL3-BMP responsive element (BRE)-Luc reporter in C2C12 myoblasts. It is filed as cell-based, murine. To be noted: FK506 1µg/mL, 5h, compared with BMP6 1ng/mL. The protocol:
C2C12 myoblasts were transfected with the pGL3-BMP responsive element (BRE)-Luc plasmid (Addgene #45126) to measure the promoter activation by the SMAD1/5/8 proteins. The cells were treated with FK506 (1µg/mL) or BMP6 (1ng/mL) 15h posttransfection. The luminescence was measured using Dual-Luciferase Reporter Assay System (Promega) after 5h of treatment according to the manufacturer's instructions.

The test system of data set [8] is C2C12 myotubes. Kind of data set: Measurement of C2C12 myotube diameters. In kind it is cell-based, murine. To be noted: for C26 CM-induced atrophy (myotube diameter): 10% C26 conditioned medium, FK506 1µg/mL or siFKBP12 transfection; for hypertrophy (myotube diameter): BMP6 1ng/mL as positive control. The protocol: When the confluence of 80-90% is reached, they are differentiated into myotubes in DMEM/2% HS medium for 4 days.
For the signaling experiments, two hours prior to treatment, the DMEM differentiation medium without serum was changed, followed by 1h of treatment with FK506 (1 µg/mL) or BMP6 (30ng/mL).
The myotubes were analyzed 48h after transfection to establish the diameters and lysates for RNA extraction.
Photographs of the myotubes were taken using 20X magnification bright field microscopy (Zeiss) and their diameter was measured using FIJI software.

Data set [9] deals with SMAD1/5. Put plainly: Western blot of SMAD1/5 phosphorylation in C2C12 myotubes. It is filed as cell-based, murine. Particulars: FK506 1µg/mL. The protocol: as §3, §4
A general note: A western blot detects proteins with antibodies after separation by electrophoresis.

The test system of data set [10] is tibialis anterior. Particulars: mice treated for 9 days; cited from earlier work.

Each structure is given as a SMILES string.

For `C=CC[C@@H]1/C=C(\C)C[C@H](C)C[C@H](OC)[C@H]2O[C@@](O)(C(=O)C(=O)N3CCCC[C@H]3C(=O)O[C@H](/C(C)=C/[C@@H]3CC[C@@H](O)[C@H](OC)C3)[C@H](C)[C@@H](O)CC1=O)[C@H](C)C[C@@H]2OC` [tacrolimus], the body weight loss entry in data set [1] (11 days) was “capable of preventing”. For the same molecule, the “fat loss (subcutaneous and inguinal adipose tissue)” value in [1] (11 days) was “capable of preventing”. For the same molecule, the “weight of the tumor” value in data set [1] (at sacrifice) is “without altering the weight of the tumor”. Further, the “maximum muscle strength (Grip Strength test)” value in data set [1] (end of the experiment (day 11)) is “increased maximum muscle strength”; in [6] (0.02mg/Kg/day oral, 4 weeks, day 29, versus vehicle (CTR)) it was “significantly increases maximum muscle strength”. The “expression of atrogens (Atrogin 1, MuRF-1, Musa1, Cathepsin L mRNA) in the gastrocnemii” value in data set [1] (normalized for GAPDH) is “reduced expression of all the atrogens”. Further, in [1] (gastrocnemius cross-section), the “muscle atrophy in terms of muscle fiber diameter” value is recorded as “capable of preventing muscle atrophy”. Moreover, the “muscle atrophy in terms of skeletal muscle weight” value in [1] (gastrocnemius weight normalized for tibia length) is “capable of preventing muscle atrophy”. The “ACTA-induced increase in protein ubiquitination” value in data set [2] is reported as “completely reversed”. For the same molecule, the “amount and state of activation of the main immune populations” value in data set [3] is recorded as “has no effect on these parameters”. Moreover, the “muscle atrophy at high immunosuppressive doses” value in data set [4] is listed as “induces muscle atrophy”. In addition, the “phosphorylation of SMAD 1/5/8 proteins” value in data set [5] is reported as “increasing the phosphorylation of SMAD 1/5/8 proteins”. Further, the “transcription of their epcidin target” value in data set [5] is “increasing”. For the same molecule, the muscle mass result in [6] (oral non-immunosuppressive doses, 11 days) is reported as “capable of increasing the mass of the quadriceps”. Besides, the BRE-Luc reporter activation result in [7] is recorded as “capable of exceeding the BMP6 positive control in reporter activation”. Moreover, the “C26 CM-induced atrophy (myotube diameter)” value in data set [8] (24h, listed as FK506) is “capable of preventing C26 CM-induced atrophy”; in data set [8] (24h, listed as Tacrolimus), “capable of preventing”. The “hypertrophy (myotube diameter)” value in [8] (FK506 1µg/mL, 24h, listed as FK506) is reported as “capable of inducing significant hypertrophy”; in [8] (FK506 1µg/mL, 24h, listed as Tacrolimus), “induces levels of hypertrophy comparable to BMP6”. In data set [8] (FK506 1µg/mL, Activin A 1ng/mL, 24h), the “ACTA-induced atrophy (myotube diameter)” value is on record as “capable of preventing”. For the same molecule, in [8] (siALK2-transfected C2C12 myotubes, FK506 1µg/mL), the “effect of tacrolimus on myotube diameter under ALK2 silencing” value is reported as “nullifies the effect of tacrolimus”. Besides, the “phosphorylation levels of SMAD1/5” value in data set [9] (1h, without stimulation by any extracellular ligand) is on record as “capable of increasing the phosphorylation levels of SMAD1/5”. For the same molecule, in data set [9] (siALK2-transfected C2C12 myotubes), the “effect of tacrolimus on phosphorylation of the Smad1/5/8 proteins under ALK2 silencing” value was “nullifies the effect of tacrolimus”.

Regarding `c1ccc2c(-c3cnn4cc(-c5ccc(N6CCNCC6)cc5)cnc34)ccnc2c1` [LDN-193189], in data set [10], the “atrophy in the myofibers of the tibialis anterior” value is 21% and the “baseline phosphorylation levels of Smad1/5/8” value is “reduction in baseline phosphorylation levels of Smad1/5/8”.

With `CC(C)Oc1ccc(-c2cnc3c(-c4ccnc5ccccc45)cnn3c2)cc1` [DMH1], the “effect of DMH1 on tacrolimus-induced hypertrophy and protection from C26 CM-induced atrophy (myotube diameter)” value in [8] (DMH1 5µM, FK506 1µg/mL, 10% C26 CM, 24h) was “nullifies both the hypertrophic effect of tacrolimus and the protection of C26 (C26 CM) tumor medium-induced atrophy”.

These data come from patent publication EP4274570B1, “ACTIVATORS OF THE BMP/SMAD AXIS FOR USE IN TREATING AND/OR PREVENTING MUSCLE ATROPHY” (Università Degli Studi Di Torino, priority 2021, dated 2022).
